Consider 16 molecules from PubChem BioAssay (NCI).

Holding throughout (test): DTP human tumour cell line panel, 48 h
In assay [1] the test system is DLD-1 colon.
Assay [2] relates to M19-MEL melanoma.
The subject of assay [3] is SNB-78 CNS.
Assay [4] relates to XF 498 CNS.
Assay [5] deals with K-562 leukemia.
Assay [6] concerns HT29 colon.
Assay [7] has as its system LXFL 529 NSCLC.
Assay [8] relates to DMS 273 small cell lung.
For assay [9], the system named is MALME-3M melanoma.
The subject of assay [10] is DMS 114 small cell lung.
Assay [11] deals with A498 renal.
The test system of assay [12] is CAKI-1 renal.
Assay [13] deals with COLO 205 colon.
In assay [14] the test system is KM20L2 colon.
Assay [15] relates to RXF-631 renal.
Assay [16] has as its system HOP-18 NSCLC.

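Interpolation was linear, between the two tested concentrations surrounding the appropriate level; five concentrations were tested over 48 hours in 96-well plates. TGI: total growth inhibition.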

A word on the TGI: it is the concentration at which net growth stops. Higher therefore signals less potent growth arrest. Consider `COc1ccc(NC(=O)C(C)Oc2ccc(OCC3CCCCC3)cc2)cc1` (stereo not drawn), for which the TGI in assay [1], in [2], in [3], in [4], in assay [5] and in [6] was > 100 µM each time. Also, the TGI in [7], in [8], in [9], in [10] and in assay [11] was > 100 µM each time.
On to `C=CCN1/C(=C2\SC(=S)N(c3ccc(C)cc3)C2=O)Sc2c1nc[nH]c2=O`, for which the concentration for total growth inhibition (TGI) in [1], in assay [2], in [12], in [13], in assay [3] and in [4] was > 100 µM in each case. For the same molecule, the TGI in assay [5], in [6], in [7], in [8], in assay [9] and in assay [10] was > 100 µM in each case. Also, the TGI in [11] and in assay [14] was > 100 µM each time.
As to `CCN(CC)C(=S)SC(C(=O)Nc1nnc(-c2ccccc2)o1)c1ccccc1` (stereo not drawn), the TGI was 50 µM in assay [12]; 84.4 µM in assay [13]; > 100 µM in [5]; 41.8 µM in assay [6]; 62 µM in [9]; 40.7 µM in assay [11].
Consider `CC(=O)O[C@@]12CO[C@@H]1C[C@@H](O)[C@@]1(C)C(=O)[C@H](O)C3=C(C)[C@@H](OC(=O)[C@H](O)[C@@H](NC(=O)c4ccccc4)c4ccccc4)C[C@@](O)([C@@H](OC(=O)c4ccccc4)C12)C3(C)C` (stereo partly drawn), for which the TGI was 70.9 µM in assay [2]; > 100 µM in [12]; 0.176 µM in [13]; > 100 µM in assay [5]; 0.124 µM in assay [6]; 13.5 µM in [8]. In addition, the TGI in [10] was 22.8 µM; in assay [11], > 100 µM; in [14], 0.0985 µM.
For the molecule `OC(c1ccc2c(c1)OCO2)c1ccc2c(c1)OCO2`, the TGI in assay [12], in assay [13], in assay [5], in assay [6], in assay [9] and in assay [11] was > 100 µM each time.
With `CC1(c2ccc(Cl)s2)CC(c2ccc(Cl)s2)=C(C#N)C(=C(C#N)C#N)N1` (stereo not drawn), the total growth inhibition concentration (TGI) was 34.8 µM in assay [12]; 61.1 µM in assay [13]; > 100 µM in [5]; 36.8 µM in assay [6]; 43.1 µM in assay [9]; 37.8 µM in [11].
Consider `ON[C@H]1C[C@@H](n2cnc3c(NC4CC4)ncnc32)[C@H](O)[C@@H]1O`, for which the TGI in assay [12], in [13], in assay [5], in assay [6], in assay [9] and in [11] was > 100 µM each time.
With `COc1cc2c(cc1O)C1(Cc3ccc4c(c3C1=O)OCO4)N(C)CC2` (stereo not drawn), the concentration for total growth inhibition (TGI) in assay [12], in assay [13], in assay [5], in [6], in [9] and in [11] was > 100 µM in each case.
As to `COC(=O)C(Br)C1CCc2ccccc21` (stereo not drawn), the TGI in [1], in assay [2], in assay [12], in assay [13], in assay [15] and in assay [16] was > 100 µM in each case. The TGI in assay [5], in assay [6], in assay [7], in [8], in assay [9] and in assay [10] was > 100 µM each time. Besides, the total growth inhibition concentration (TGI) in assay [11] and in assay [14] was > 100 µM each time.
For `COC1(OC)C=CC2C1C1C=CC2C1(OC)OC` (stereo not drawn), the TGI in [12], in assay [13], in assay [5], in assay [6], in assay [9] and in assay [11] was > 100 µM each time.
Take `COc1ccc(/C(=C/n2ccnc2)C(O)c2ccc(OC)c(OC)c2)cc1OC` (stereo not drawn): the total growth inhibition concentration (TGI) in [1], in assay [2], in [13], in assay [16], in assay [5] and in assay [6] was > 100 µM throughout. Moreover, the TGI in assay [8], in assay [11] and in [14] was > 100 µM throughout.
In the case of `CC1CN(c2cc3c(cc2F)c(=O)c(C(=O)O)cn3-c2ccc(F)cn2)CC(C)N1` (stereo not drawn), the concentration for total growth inhibition (TGI) in [12], in assay [13], in assay [5], in assay [6], in assay [9] and in assay [11] was > 100 µM in each case.
`CCN(CC)Cc1ccc(C(=S)Nc2ccc(C)cc2)s1`: the total growth inhibition concentration (TGI) is 29.6 µM in assay [12]; 31.7 µM in assay [13]; 26.4 µM in assay [5]; 14.4 µM in assay [6]; 32.5 µM in [9]; 27.2 µM in assay [11].
With `O=C1c2c(ccc3c2CCC3)CC12Cc1ccccc1C2`, the TGI in assay [12] was 43.6 µM; in [13], 53.1 µM; in assay [5] it was 79.3 µM; in [6] it was 47.1 µM; in assay [9], 54 µM; in assay [11] it was 96.2 µM.
With `COc1cccc(Nc2nc(N)nc(N)c2N)c1`, the TGI in [12] was 58.3 µM; in assay [13] it was > 100 µM; in assay [5], > 100 µM; in [6], > 100 µM; in [9], > 100 µM; in assay [11], > 100 µM.
With `CC(C)(C)OC(=O)NCCCC(=O)NC1(c2cc3ccccc3s2)CCCCC1`, the concentration for total growth inhibition (TGI) in assay [12] was 93.1 µM; in assay [13], 29 µM; in assay [5], 51.4 µM; in [6], 30.6 µM; in assay [9] it was 37 µM; in [11], 51 µM.
